From US20240132484A1, “BROAD SPECTRUM ANTIVIRAL COMPOUNDS TARGETING THE SKI COMPLEX” (priority 2020, published 2024)
Values joined by “and” are separate entries in the source; they are usually repeats but may differ in a detail not shown here. Equal entries are not always repeated. Where two headings read alike, the source gives them in different places.

Assays:
[1] = tested on: cells (nuclei count); conditions: for Toxicity Data: Average, Mean / Toxicity Data, Average, Mean: average of Exp 1-3 (SMW475, SMW477, SMW478); for Toxicity Data: Average, Mean: n 9; for Relative cell count to DMSO controls, Average 1 μM / Relative cell count to DMSO controls, Average 5 μM / Relative cell count to DMSO controls, Average 10 μM / Relative cell count to DMSO controls, Average 25 μM / Relative cell count to DMSO controls, Average 50 μM: toxicity data, 100=DMSO control; for Relative cell count to DMSO controls, Average (for correlation analysis): average value over the 5 tested concentrations (1 to 50 uM)
[2] = tested on: SARS2; format: cell-based, SARS-CoV-2; conditions: for Infection Data: Percentage Infection Relative to Appropriate DMSO Control: avg background subtraction, replicate wells; for Infection Data: Average, Mean / Infection Data, Average, Mean: average of Exp 1-3 (SMW475, SMW477, SMW478); for Infection Data: Average, Mean: n 9; for Percentage Inhibition Average 1 μM / Screening data (Relative infection to DMSO controls) Average 1 μM: SARS2, 1 μM; for Screening data (Relative infection to DMSO controls) Average 1 μM / Screening data (Relative infection to DMSO controls) Average 5 μM / Screening data (Relative infection to DMSO controls) Average 10 μM / Screening data (Relative infection to DMSO controls) Average 25 μM / Screening data (Relative infection to DMSO controls) Average 50 μM / Average (relative infection to DMSO over the 5 tested concentrations): 100=DMSO control; for Percentage Inhibition Average 5 μM / Screening data (Relative infection to DMSO controls) Average 5 μM: SARS2, 5 μM; for Percentage Inhibition Average 10 μM / Screening data (Relative infection to DMSO controls) Average 10 μM: SARS2, 10 μM; for Percentage Inhibition Average 25 μM / Screening data (Relative infection to DMSO controls) Average 25 μM: SARS2, 25 μM; for Percentage Inhibition Average 50 μM / Screening data (Relative infection to DMSO controls) Average 50 μM: SARS2, 50 μM; for Average (relative infection to DMSO over the 5 tested concentrations): SARS2, average over 1 to 50 uM

Structure (SMILES): Cc1cc(CN(CCN(C)C)Cc2ccncc2)sc1Br [SILCS14]
- Toxicity Data: Average, Mean ([1]; 1 uM): 105.49%
- Relative cell count to DMSO controls, Average 1 μM [1]: 105.49
- Toxicity Data: Average, Mean ([1]; 5 uM): 103.93%
- Relative cell count to DMSO controls, Average 5 μM [1]: 103.93
- Toxicity Data: Average, Mean ([1]; 10 uM): 108.29%
- Relative cell count to DMSO controls, Average 10 μM [1]: 108.29
- Toxicity Data: Average, Mean ([1]; 25 uM): 139.75%
- Relative cell count to DMSO controls, Average 25 μM [1]: 139.75
- Toxicity Data: Average, Mean ([1]; 50 uM): 16.80%
- Relative cell count to DMSO controls, Average 50 μM [1]: 16.8
- Relative cell count to DMSO controls, Average (for correlation analysis) [1]: 94.85
- Infection Data: Percentage Infection Relative to Appropriate DMSO Control ([2]; 1 uM, Exp 1 (SMW475)): 112.00% and 92.09% and 122.87%
- Infection Data: Percentage Infection Relative to Appropriate DMSO Control ([2]; 1 uM, Exp 2 (SMW477)): 91.97% and 93.96% and 99.35%
- Infection Data: Percentage Infection Relative to Appropriate DMSO Control ([2]; 1 uM, Exp 3 (SMW478)): 112.26% and 106.71% and 118.52%
- Infection Data: Average, Mean ([2]; 1 uM): 105.53%
- Infection Data: Percentage Infection Relative to Appropriate DMSO Control ([2]; 5 uM, Exp 1 (SMW475)): 112.88% and 98.55% and 115.50%
- Infection Data: Percentage Infection Relative to Appropriate DMSO Control ([2]; 5 uM, Exp 2 (SMW477)): 105.78% and 98.21% and 86.55%
- Infection Data: Percentage Infection Relative to Appropriate DMSO Control ([2]; 5 uM, Exp 3 (SMW478)): 109.15% and 113.38% and 106.22%
- Infection Data: Average, Mean ([2]; 5 uM): 105.13%
- Infection Data: Percentage Infection Relative to Appropriate DMSO Control ([2]; 10 uM, Exp 1 (SMW475)): 92.53% and 120.55% and 101.62%
- Infection Data: Percentage Infection Relative to Appropriate DMSO Control ([2]; 10 uM, Exp 2 (SMW477)): 84.89% and 81.65% and 69.99%
- Infection Data: Percentage Infection Relative to Appropriate DMSO Control ([2]; 10 uM, Exp 3 (SMW478)): 92.27% and 101.81% and 99.27%
- Infection Data: Average, Mean ([2]; 10 uM): 93.84%
- Infection Data: Percentage Infection Relative to Appropriate DMSO Control ([2]; 25 uM, Exp 1 (SMW475)): 11.84% and 13.81% and 11.60%
- Infection Data: Percentage Infection Relative to Appropriate DMSO Control ([2]; 25 uM, Exp 2 (SMW477)): 19.70% and 19.93% and 22.53%
- Infection Data: Percentage Infection Relative to Appropriate DMSO Control ([2]; 25 uM, Exp 3 (SMW478)): 9.11% and 11.10% and 12.21%
- Infection Data: Average, Mean ([2]; 25 uM): 14.65%
- Infection Data: Percentage Infection Relative to Appropriate DMSO Control ([2]; 50 uM, Exp 1 (SMW475)): 2.09% and 3.52% and 1.22%
- Infection Data: Percentage Infection Relative to Appropriate DMSO Control ([2]; 50 uM, Exp 2 (SMW477)): 1.91% and −0.25% and −0.24%
- Infection Data: Percentage Infection Relative to Appropriate DMSO Control ([2]; 50 uM, Exp 3 (SMW478)): 3.06% and 0.62% and 3.25%
- Infection Data: Average, Mean ([2]; 50 uM): 1.69%
- Percentage Inhibition Average 1 μM [2]: −5.53%
- Screening data (Relative infection to DMSO controls) Average 1 μM [2]: 105.53
- Percentage Inhibition Average 5 μM [2]: −5.13%
- Screening data (Relative infection to DMSO controls) Average 5 μM [2]: 105.13
- Percentage Inhibition Average 10 μM [2]: 6.16%
- Screening data (Relative infection to DMSO controls) Average 10 μM [2]: 93.84
- Percentage Inhibition Average 25 μM [2]: 85.35%
- Screening data (Relative infection to DMSO controls) Average 25 μM [2]: 14.65
- Percentage Inhibition Average 50 μM [2]: 98.31%
- Screening data (Relative infection to DMSO controls) Average 50 μM [2]: 1.69
- Average (relative infection to DMSO over the 5 tested concentrations) [2]: 64.17

Structure (SMILES): COC(=O)c1csc(CN(CCN(C)C)Cc2ccsc2)c1 [SILCS31]
- Relative cell count to DMSO controls, Average 1 μM [1]: 113.44
- Relative cell count to DMSO controls, Average 5 μM [1]: 114.77
- Relative cell count to DMSO controls, Average 10 μM [1]: 109.5
- Relative cell count to DMSO controls, Average 25 μM [1]: 102.57
- Relative cell count to DMSO controls, Average 50 μM [1]: 96.45
- Toxicity Data, Average, Mean ([1]; n 9, 1 uM): 113.44%
- Toxicity Data, Average, Mean ([1]; n 9, 5 uM): 114.77%
- Toxicity Data, Average, Mean ([1]; n 9, 10 uM): 109.50%
- Toxicity Data, Average, Mean ([1]; n 9, 25 uM): 102.57%
- Toxicity Data, Average, Mean ([1]; n 9, 50 uM): 96.45%
- Relative cell count to DMSO controls, Average (for correlation analysis) [1]: 107.35
- SARS2 antiviral activity [2]: decrease in activity
- Percentage Infection Relative to Appropriate DMSO Control with Avg Background Subtraction ([2]; Exp 1 (SMW475), 1 uM, single well): 89.46% and 114.99% and 104.36%
- Percentage Infection Relative to Appropriate DMSO Control with Avg Background Subtraction ([2]; Exp 1 (SMW475), 5 uM, single well): 96.46% and 105.10% and 110.06%
- Percentage Infection Relative to Appropriate DMSO Control with Avg Background Subtraction ([2]; Exp 1 (SMW475), 10 uM, single well): 122.44% and 140.70% and 131.42%
- Percentage Infection Relative to Appropriate DMSO Control with Avg Background Subtraction ([2]; Exp 1 (SMW475), 25 uM, single well): 64.20% and 68.29% and 61.79%
- Percentage Infection Relative to Appropriate DMSO Control with Avg Background Subtraction ([2]; Exp 1 (SMW475), 50 uM, single well): 27.95% and 23.70% and 21.94%
- Percentage Infection Relative to Appropriate DMSO Control with Avg Background Subtraction ([2]; Exp 2 (SMW477), 1 uM, single well): 99.50% and 100.31% and 97.32%
- Percentage Infection Relative to Appropriate DMSO Control with Avg Background Subtraction ([2]; Exp 2 (SMW477), 5 uM, single well): 126.44% and 106.51% and 105.32%
- Percentage Infection Relative to Appropriate DMSO Control with Avg Background Subtraction ([2]; Exp 2 (SMW477), 10 uM, single well): 115.31% and 105.13% and 102.55%
- Percentage Infection Relative to Appropriate DMSO Control with Avg Background Subtraction ([2]; Exp 2 (SMW477), 25 uM, single well): 73.95% and 82.92% and 76.95%
- Percentage Infection Relative to Appropriate DMSO Control with Avg Background Subtraction ([2]; Exp 2 (SMW477), 50 uM, single well): 19.41% and 19.72% and 23.27%
- Percentage Infection Relative to Appropriate DMSO Control with Avg Background Subtraction ([2]; Exp 3 (SMW478), 1 uM, Greiner Celigo plates): 90.68% and 87.75% and 89.34%
- Percentage Infection Relative to Appropriate DMSO Control with Avg Background Subtraction ([2]; Exp 3 (SMW478), 5 uM, Greiner Celigo plates): 64.83% and 79.11% and 61.06%
- Percentage Infection Relative to Appropriate DMSO Control with Avg Background Subtraction ([2]; Exp 3 (SMW478), 10 uM, Greiner Celigo plates): 63.55% and 89.71% and 51.99%
- Percentage Infection Relative to Appropriate DMSO Control with Avg Background Subtraction ([2]; Exp 3 (SMW478), 25 uM, Greiner Celigo plates): 86.74% and 80.23% and 76.86%
- Percentage Infection Relative to Appropriate DMSO Control with Avg Background Subtraction ([2]; Exp 3 (SMW478), 50 uM, Greiner Celigo plates): 26.23% and 18.61% and 22.87%
- Percentage Inhibition Average 1 μM [2]: 2.92%
- Screening data (Relative infection to DMSO controls) Average 1 μM [2]: 97.08
- Percentage Inhibition Average 5 μM [2]: 5.01%
- Screening data (Relative infection to DMSO controls) Average 5 μM [2]: 94.99
- Percentage Inhibition Average 10 μM [2]: −2.53%
- Screening data (Relative infection to DMSO controls) Average 10 μM [2]: 102.53
- Percentage Inhibition Average 25 μM [2]: 25.34%
- Screening data (Relative infection to DMSO controls) Average 25 μM [2]: 74.66
- Percentage Inhibition Average 50 μM [2]: 77.37%
- Screening data (Relative infection to DMSO controls) Average 50 μM [2]: 22.63
- Average (relative infection to DMSO over the 5 tested concentrations) [2]: 78.38
- Infection Data, Average, Mean ([2]; n 9, 1 uM): 97.08%
- Infection Data, Average, Mean ([2]; n 9, 5 uM): 94.99%
- Infection Data, Average, Mean ([2]; n 9, 10 uM): 102.53%
- Infection Data, Average, Mean ([2]; n 9, 25 uM): 74.66%
- Infection Data, Average, Mean ([2]; n 9, 50 uM): 22.63%
